Source: patent publication US10245275B2 (ViiV HEALTHCARE UK (NO.4) LIMITED, priority 2014, dated 2019)
Where two headings read alike, the source gives them in different places.

Legend:
[1] = tested on: HIV-1 NL4-3 gag A364V virus; assay: microbe, parasite or virus in culture; assay type: cell-based
In short: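 Recombinant NL4-3 reporter virus with Renilla luciferase replacing part of nef, made by transfection of 293T cells. MT-2 cells infected for 4-5 days with serial inhibitor dilutions; antiviral activity quantified by luciferase activity.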

[2] = tested on: WT (wild-type HIV virus; recombinant NL4-3 virus); assay: microbe, parasite or virus in culture; assay type: cell-based, HIV-1
In short: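 MT-2 cells infected 4-5 days with NL4-3 carrying Renilla luciferase in place of part of nef (Gag P373S), virus made by 293T transfection, with serial inhibitor dilutions. Antiviral activity read as luciferase activity by a modified dual-luciferase read-out.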

[3] = Human immunodeficiency virus 1, NL43, MT2, read-out: A364V (EC50, uM), Table 1 regular screen, class symbol
[4] = Human immunodeficiency virus 1, NL43, MT2, read-out: WT (EC50, uM), Table 1 regular screen, class symbol

CC(C)[C@@H]1CC[C@]2(NCCN3CCS(=O)(=O)CC3)CC[C@]3(C)[C@H](CC[C@@H]4[C@@]5(C)CC=C(C6CCC(CF)(C(=O)O)CC6)C(C)(C)[C@@H]5CC[C@]43C)[C@@H]12 (stereo partly drawn) [Example 23, 4-((1S,3aS,5aR,5bR,7aR,11aS,11bR,13aR,13bR)-3a-((2-(1,1-dioxidothiomorpholino)ethyl)amino)-1-isopropyl-5a,5b, 8,8,11a-pentamethyl-2,3,3a,4,5,5a,5b,6,7,7a,8,11,11a,11b,12,13,13a,13b-octadecahydro-1H-cyclopenta[a]chrysen-9-yl)-1-(fluoromethyl)cyclohexanecarboxylic acid]
EC50 [1, 3]: > 0.05 µM | EC50 [2, 4]: < 0.05 µM

C=C(C)[C@@H]1CC[C@]2(NCCN3CC(C)S(=O)(=O)C(C)C3)CC[C@]3(C)[C@H](CC[C@@H]4[C@@]5(C)CC=C(C6=CC[C@@](CF)(C(=O)O)CC6)C(C)(C)[C@@H]5CC[C@]43C)[C@@H]12 (stereo partly drawn) [Example 24, (1R)-4-((1R,3aS,5aR,5bR,7aR,11aS,11bR,13aR,13bR)-3a-((2-(2,6-dimethyl-1,1-dioxidothiomorpholino)ethyl)amino)-5a,5b,8,8,11a-pentamethyl-1-(prop-1-en-2-yl)-2,3,3a,4,5,5a,5b,6,7,7a,8,11,11a,11b,12,13,13a,13b-octadecahydro-1H-cyclopenta[a]chrysen-9-yl)-1-(fluoromethyl)cyclohex-3-enecarboxylic acid]
EC50 [1, 3]: > 0.05 µM | EC50 [2, 4]: < 0.05 µM

C=C(C)[C@@H]1CC[C@]2(NCCN3CC(C)S(=O)(=O)C(C)C3)CC[C@]3(C)[C@H](CC[C@@H]4[C@@]5(C)CC=C(C6=CC[C@](CF)(C(=O)O)CC6)C(C)(C)[C@@H]5CC[C@]43C)[C@@H]12 (stereo partly drawn) [Example 25, (1S)-4-((1R,3aS,5aR,5bR,7aR,11aS,11bR,13aR,13bR)-3a-((2-(2,6-dimethyl-1,1-dioxidothiomorpholino)ethyl)amino)-5a,5b, 8,8,11a-pentamethyl-1-(prop-1-en-2-yl)-2,3,3a,4,5,5a,5b,6,7,7a,8,11,11a,11b,12,13,13a,13b-octadecahydro-1H-cyclopenta[a]chrysen-9-yl)-1-(fluoromethyl)cyclohex-3-enecarboxylic acid]
EC50 [1, 3]: > 0.05 µM | EC50 [2, 4]: < 0.05 µM

C=C(C)[C@@H]1CC[C@]2(NCCN3CCS(=O)(=O)CC(C)C3)CC[C@]3(C)[C@H](CC[C@@H]4[C@@]5(C)CC=C(C6=CC[C@@](CF)(C(=O)O)CC6)C(C)(C)[C@@H]5CC[C@]43C)[C@@H]12 (stereo partly drawn) [Example 26, (1R)-1-(fluoromethyl)-4-((1R,3aS,5aR,5bR,7aR,11aS,11bR,13aR,13bR)-5a,5b,8,8,11a-pentamethyl-3a-((2-(6-methyl-1,1-dioxido-1,4-thiazepan-4-yl)ethyl)amino)-1-(prop-1-en-2-yl)-2,3,3a,4,5,5a,5b,6,7,7a,8,11,11a,11b,12,13,13a,13b-octadecahydro-1H-cyclopenta[a]chrysen-9-yl)cyclohex-3-enecarboxylic acid]
EC50 [1, 3]: > 0.05 µM | EC50 [2, 4]: < 0.05 µM

C=C(C)[C@@H]1CC[C@]2(NCCN3CCS(=O)(=O)CC(C)C3)CC[C@]3(C)[C@H](CC[C@@H]4[C@@]5(C)CC=C(C6=CC[C@](CF)(C(=O)O)CC6)C(C)(C)[C@@H]5CC[C@]43C)[C@@H]12 (stereo partly drawn) [Example 27, (1S)-1-(fluoromethyl)-4-((1R,3aS,5aR,5bR,7aR,11aS,11bR,13aR,13bR)-5a,5b,8,8,11a-pentamethyl-3a-((2-(6-methyl-1,1-dioxido-1,4-thiazepan-4-yl)ethyl)amino)-1-(prop-1-en-2-yl)-2,3,3a,4,5,5a,5b,6,7,7a,8,11,11a,11b,12,13,13a,13b-octadecahydro-1H-cyclopenta[a]chrysen-9-yl)cyclohex-3-enecarboxylic acid]
EC50 [1, 3]: > 0.05 µM | EC50 [2, 4]: < 0.05 µM

C=C(C)[C@@H]1CC[C@]2(NCC(=O)O)CC[C@]3(C)[C@H](CC[C@@H]4[C@@]5(C)CC=C(C6=CC[C@](CF)(C(=O)O)CC6)C(C)(C)[C@@H]5CC[C@]43C)[C@@H]12 [Example 28, (S)-4-((1R,3aS,5aR,5bR,7aR,11aS,11bR,13aR,13bR)-3a-((carboxymethyl)amino)-5a,5b, 8,8,11a-pentamethyl-1-(prop-1-en-2-yl)-2,3,3a,4,5,5a,5b,6,7,7a,8,11,11a,11b,12,13,13a,13b-octadecahydro-1H-cyclopenta[a]chrysen-9-yl)-1-(fluoromethyl)cyclohex-3-enecarboxylic acid]
EC50 [1, 3]: > 0.05 µM | EC50 [2, 4]: > 0.05 µM

C=C(C)[C@@H]1CC[C@]2(NCC(=O)N3CCS(=O)(=O)CC3)CC[C@]3(C)[C@H](CC[C@@H]4[C@@]5(C)CC=C(C6=CC[C@](CF)(C(=O)O)CC6)C(C)(C)[C@@H]5CC[C@]43C)[C@@H]12 [Example 29, (S)-4-((1R,3aS,5aR,5bR,7aR,11aS,11bR,13aR,13bR)-3a-((2-(1,1-dioxidothiomorpholino)-2-oxoethyl)amino)-5a,5b,8,8,11a-pentamethyl-1-(prop-1-en-2-yl)-2,3,3a,4,5,5a,5b,6,7,7a,8,11,11a,11b,12,13,13a,13b-octadecahydro-1H-cyclopenta[a]chrysen-9-yl)-1-(fluoromethyl)cyclohex-3-enecarboxylic acid]
EC50 [1, 3]: > 0.05 µM | EC50 [2, 4]: < 0.05 µM

C=C(C)[C@@H]1CC[C@]2(NCC(=O)N3CCC(C)(O)CC3)CC[C@]3(C)[C@H](CC[C@@H]4[C@@]5(C)CC=C(C6=CC[C@](CF)(C(=O)O)CC6)C(C)(C)[C@@H]5CC[C@]43C)[C@@H]12 [Example 30, (S)-1-(fluoromethyl)-4-((1R,3aS,5aR,5bR,7aR,11aS,11bR,13aR,13bR)-3a-((2-(4-hydroxy-4-methylpiperidin-1-yl)-2-oxoethyl)amino)-5a,5b,8,8,11a-pentamethyl-1-(prop-1-en-2-yl)-2,3,3a,4,5,5a,5b,6,7,7a,8,11,11a,11b,12,13,13a,13b-octadecahydro-1H-cyclopenta[a]chrysen-9-yl)cyclohex-3-enecarboxylic acid]
EC50 ([1]; Human immunodeficiency virus 1, NL43, MT2, read-out: A364V (EC50, uM), Table 1 regular screen, MT-2 cells, luciferase readout): 0.551 µM | EC50 ([2]; Human immunodeficiency virus 1, NL43, MT2, read-out: WT (EC50, uM), Table 1 regular screen, MT-2 cells, luciferase readout): 0.00298 µM

C=C(C)[C@@H]1CC[C@]2(NCC(=O)N3CCC(S(C)(=O)=O)CC3)CC[C@]3(C)[C@H](CC[C@@H]4[C@@]5(C)CC=C(C6=CC[C@](CF)(C(=O)O)CC6)C(C)(C)[C@@H]5CC[C@]43C)[C@@H]12 [Example 31, (S)-1-(fluoromethyl)-4-((1R,3aS,5aR,5bR,7aR,11aS,11bR,13aR,13bR)-5a,5b, 8,8,11a-pentamethyl-3a-((2-(4-(methylsulfonyl)piperidin-1-yl)-2-oxoethyl)amino)-1-(prop-1-en-2-yl)-2,3,3a,4,5,5a,5b,6,7,7a,8,11,11a,11b,12,13,13a,13b-octadecahydro-1H-cyclopenta[a]chrysen-9-yl)cyclohex-3-enecarboxylic acid]
EC50 [1, 3]: > 0.05 µM | EC50 [2, 4]: < 0.05 µM

C=C(C)[C@@H]1CC[C@]2(NCC(=O)N3CCOCC3)CC[C@]3(C)[C@H](CC[C@@H]4[C@@]5(C)CC=C(C6=CC[C@](CF)(C(=O)O)CC6)C(C)(C)[C@@H]5CC[C@]43C)[C@@H]12 [Example 32, (S)-1-(fluoromethyl)-4-((1R,3aS,5aR,5bR,7aR,11aS,11bR,13aR,13bR)-5a,5b, 8,8,11a-pentamethyl-3a-((2-morpholino-2-oxoethyl)amino)-1-(prop-1-en-2-yl)-2,3,3a,4,5,5a,5b,6,7,7a,8,11,11a,11b,12,13,13a,13b-octadecahydro-1H-cyclopenta[a]chrysen-9-yl)cyclohex-3-enecarboxylic acid]
EC50 [1, 3]: > 0.05 µM | EC50 [2, 4]: < 0.05 µM
